Assay results as given in patent publication US20120065365A1, “Stable Radiopharmaceutical Compositions and Methods for Their Preparation” (BRACCO IMAGING S.P.A., priority 2003, published 2012).
Structures can show the parent of a compound that is named as a salt. Where two headings read alike, the source gives them in different places. Each block holds one molecule with its values, some of them ahead of it.

Legend:
[1] = type: physicochemical; settings: for RCP % t = 0 h: ^177Lu-A (5.28 mCi avg) prepared in presence of stabilizer 3.33 mg/mL; for RCP (%) t = 72 h: ^177Lu-A prepared and stored in presence of stabilizer 3.33 mg/mL, room temperature
Experimental: 10 mg/mL solutions of thiamine hydrochloride and L-glutathione were prepared by disserving them in water. 10 mg/mL solutions of 3-hydroxycinnamic acid, 4-hydroxyantipyrine and acetylsalicylic acid were prepared by dissolving them in 50% EtOH/water. 10 mg/mL solutions of 2-hydroxybenzothiazole and 2,1,3-benzothiadiazole were prepared by dissolving them in EtOH.

[2] = type: physicochemical; settings: ^177Lu-A (2.7-3.7 mCi) prepared in presence of 1 mg/mL stabilizer; for RCP % t = 24 h (frozen): 24 h frozen (−10° C.)
Experimental: The injection volume was 10 μL.
Each individual stabilizer was prepared at a concentration of 1 mg/mL in sodium acetate (NaOAc) buffer (0.2 M, pH 4.8). […] The reaction mixture was heated to 100° C. for 5 minutes, and then cooled for 5 minutes in an ambient-temperature water hath. To each sample, 10 μL of 2% Na2EDTA.2H2in water was added, and then each was divided into two 100-μL aliquots. One aliquot was analyzed by HPLC (Method 5) and then stored at room temperature in a sealed lead container for 24 hours. The other aliquot was stored frozen (−10° C.) for 24 hours. Each sample was analyzed at t=24 h.

[3] = type: physicochemical; settings: for Replicate 1 RCP % t = 0 h: ^177Lu-A (3.55 mCi avg) prepared in presence of 5 mg/mL stabilizer, HPLC Method 1, t = 0 h; for Replicate 2 RCP % t = 0 h / Replicate 2 RCP % t = 24 h: ^177Lu-A (4.37 mCi avg) prepared in presence of 5 mg/mL stabilizer; for Replicate 2 RCP % t = 0 h: HPLC Method 2, t = 0 h; for Replicate 2 RCP % t = 24 h: HPLC Method 2, t = 24 h
Experimental: (§1) The injection volume was 20 μL.
Each stabilizer was prepared at a concentration of 5 mg/mL in sodium acetate (NaOAc) buffer (0.2 M, pH 4.8). To lead-shielded 4-mL vials were added 200 μL of the individual stabilizer solutions, 3.55 mCi ^177LuCl3 (avg) and 5.44 μg COMPOUND A (dissolved in water). A second set of replicates of each sample was prepared, using the individual stabilizers. To these was added 4.37 mCi ^177LuCl3 (avg) and 6.7 μg (avg) COMPOUND A (dissolved in water). The ratio of COMPOUND A to lutetium was 3:1 for all samples. The reaction mixture was heated to 100° C. for 5 minutes then cooled for 5 minutes in an ambient-temperature water bath. To each sample, 10 μL of 2% Na2EDTA.2H2O in water was added, then each was analyzed by HPLC (Method 1 for the first set of replicates; Method 2 for the second set of replicates). The second set of replicates were stored and analyzed again at t=24 h.

[4] = type: physicochemical; settings: ^177Lu-A (3.6 mCi) prepared in presence of 2.5 mg/mL stabilizer
Experimental: To lead-shielded 4-mL vials was added 200 μL of the individual NaOAc-stabilizer solutions, 3.58 mCi ^177LuCl3 (avg) and 5.08 μg COMPOUND A (dissolved in water). The ratio of COMPOUND A to Lutetium was 3:1 for all samples. The reaction mixtures were heated to 100° C. for 5 minutes, then cooled, treated with Na2EDTA.2H2O, subdivided and stored as described in Example 9. The radiochemical purity (RCP) percentage data obtained are listed Table 12.

[5] = Radiostability (RCP, Met═O by HPLC) of preformed ^177Lu-A with individual amino acids added (Example 1); type: physicochemical; settings: amino acid 6.6 mg/mL, room temperature; for 0-1 h RCP (%): ^177Lu-A ~20 mCi/mL (3.5 mCi total); for 24-h RCP (%) / 48-h RCP (%): ^177Lu-A ~20 mCi/mL
Experimental: as §1
Solutions of the individual amino acids L-Methionine, L-Selenomethionine, L-cysteine HCl.H2O, L-Tryptophan, L-Histidine, and Glycine were prepared at a concentration of 10 mg/mL in 10 mM Dulbecco's phosphate-buffered saline, pH 7.0 [PBS].
The final radioactive concentration of each sample was ˜20 mCi/mL.

RCP % t = 0 h [1]: 98.6%
RCP (%) t = 72 h [1]: 3.1%
Structure (SMILES): c1ccc2nsnc2c1 [2,1,3-Benzothiadiazole]

Structure (SMILES): Oc1nc2ccccc2s1 [2-Hydroxybenzothiazole]
RCP % t = 0 h [1]: 96.2%
RCP (%) t = 72 h [1]: 9.6%

RCP % t = 0 h [1]: 96.6%
RCP (%) t = 72 h [1]: 0%
Structure (SMILES): O=C(O)/C=C/c1cccc(O)c1 [3-Hydroxycinnamic acid]

Structure (SMILES): Cc1c(O)c(=O)n(-c2ccccc2)n1C [4-Hydroxyantipyrine]
RCP % t = 0 h [1]: 99.9%
RCP (%) t = 72 h [1]: 0%

RCP % t = 0 h [1]: 73.0%
RCP (%) t = 72 h [1]: 0%
Structure (SMILES): CC(=O)Oc1ccccc1C(=O)O [Acetylsalicylic acid, Acetylsalicyclic acid, reference compound]

RCP % t = 0 h [2]: 98.7%
Replicate 1 RCP % t = 0 h [3]: 87.6%
Replicate 2 RCP % t = 0 h [3]: 30.2%
Replicate 2 RCP % t = 24 h [3]: 24.5%
RCP % t = 24 h (frozen) [4]: 78.4%
RCP % t = 24 h (room temp) [4]: 88.1%
Structure (SMILES): O=C1O[C@H]([C@@H](O)CO)C([O-])=C1O.[Na+] [Ascorbic acid, Sodium L-ascorbate (Ascorbic acid)]

RCP % t = 24 h (frozen) [2]: 100%
RCP % t = 24 h (room temp) [2]: 100%
RCP % t = 0 h [2]: 100%
Replicate 1 RCP % t = 0 h [3]: 100%
Replicate 2 RCP % t = 0 h [3]: 97.6%
Replicate 2 RCP % t = 24 h [3]: 80.7%
RCP % t = 24 h (frozen) [4]: 100%
RCP % t = 24 h (room temp) [4]: 99.6%
RCP % t = 0 h [4]: 100%
Structure (SMILES): CSCC[C@@H](N)C(=O)O [D-Methionine]

RCP % t = 24 h (frozen) [2]: 84.3%
RCP % t = 24 h (room temp) [2]: 64.9%
RCP % t = 0 h [2]: 100%
Replicate 1 RCP % t = 0 h [3]: 93.9%
Replicate 2 RCP % t = 0 h [3]: 96.6%
Replicate 2 RCP % t = 24 h [3]: 75.2%
RCP % t = 24 h (frozen) [4]: 82.8%
RCP % t = 24 h (room temp) [4]: 78.6%
RCP % t = 0 h [4]: 100%
Structure (SMILES): O=C([O-])c1cc(O)ccc1O.[Na+] [Gentisic acid, 2,5-Dihydroxybenzoic acid sodium salt hydrate (Gentisic acid)]

0-1 h RCP (%) [5]: 96.4%
24-h RCP (%) [5]: 14.6%
48-h RCP (%) [5]: 0%
Structure (SMILES): NCC(=O)O [Glycine]

0-1 h RCP (%) [5]: 92.5%
24-h RCP (%) [5]: 4.6%
48-h RCP (%) [5]: 0%
Structure (SMILES): N[C@@H](Cc1c[nH]cn1)C(=O)O [Histidine, L-Histidine]

RCP % t = 0 h [1]: 91.1%
RCP (%) t = 72 h [1]: 0%
Structure (SMILES): N[C@@H](CCC(=O)N[C@@H](CS)C(=O)NCC(=O)O)C(=O)O [L-Glutathione, L-Glutathione, reduced]

RCP % t = 0 h [1]: 97.0%
RCP (%) t = 72 h [1]: 0%
Structure (SMILES): Cc1ncc(C[n+]2csc(CCO)c2C)c(N)n1 [Thiamine hydrochloride, reference compound]

0-1 h RCP (%) [5]: 95.5%
24-h RCP (%) [5]: 51.4%
48-h RCP (%) [5]: 18.2%
Structure (SMILES): N[C@@H](Cc1c[nH]c2ccccc12)C(=O)O [Tryptophan, L-Tryptophan]
